We go through 16 molecules from patent US20260042772A1, “FURO PYRIMIDINE DERIVATES” (Merck Patent GmbH, priority 2022, published 2026).

For experiment [1], the system named is sensitive (NF54) strains of P. falciparum. Briefly: In vitro P. falciparum assay, modified [3H]hypoxanthine incorporation assay. In kind it is cell-based. Particulars: Plasmodium falciparum, NF54 strain. An excerpt:
Compounds according to the present invention were screened against sensitive (NF54) strains of P. falciparum in vitro using the modified [3H]hypoxanthine incorporation assay. (Vennerstrom, J. L.; Arbe-Barnes, S.; Brun, R.; Charman, S. A.; Chiu, F. C. K.; Chollet, J.; Dong, Y.; Dorn, A.; Hunziker, D.; Matile, H.; McIntosh, K.; Padmanilayam, M.; Tomas, J. S.; Scheurer, C.; Scorneaux, B.; Tang, Y.; Urwyler, H.; Wittlin, S. and Charman, W. N. Identification of an Antimalarial Synthetic Trioxolane Drug Development Candidate. Nature, 2004, 430, 900-904.).
Compound concentrations at which growth of P. falciparum was inhibited by 50% compared to untreated controls was measured in nM (IC50).
Compound concentrations at which growth of P. falciparum was inhibited by 50% compared to untreated controls was measured in nM (IC50) as described above (PfNF54 IC50 (nM)).

A further experiment concerns the target human PI4Kβ (HuPI4Kβ) (Homo sapiens (Human), UniProt Q9UBF8). Briefly: HuPI4Kβ lipid kinase inhibition, ADP-Glo Kinase Assay. Particulars: recombinant enzyme. The experiment is classed as biochemical. How it is done:
To further test the impact of compounds according to the present invention on human PI4Kβ, HuP[…]β inhibition was tested for selected compounds and contrasted with the results for inhibiting PfNF54 strains as described in the example above. The lipid kinase reaction is performed by incubating lipid substrate (PI:3PS or PIP2:3PS) with a recombinant enzyme and ATP, and the kinase activity is measured using the ADP-GloTM Kinase Assay. First, the kinase reaction is terminated, and any ATP remaining after the reaction is depleted, leaving only ADP. Then the Kinase Detection Reagent is added to convert ADP to ATP, which is used in a coupled luciferin/luciferase reaction. The luminescent output is measured and is correlated with kinase activity. The assays can be performed in 96- or 384-well plates and can be used for enzyme characterization, inhibitor screening or compound profiling. Results measuring the effect of compounds on HuP[…]β are reported in table 2 in nM (IC50) describing the concentration necessary to inhibit 50% of the enzyme's activity (HuP[…]β IC50 (nM)).

The subject of experiment [2] is chloroquine sensitive (CQS) strain (NF54) of P. falciparum. Briefly: In vitro antiplasmodial activity, Assay A (parasite lactate dehydrogenase assay). In kind it is cell-based. To be noted: Plasmodium falciparum. How it is done: Test samples were screened for in vitro antiplasmodial activity against a chloroquine sensitive (CQS) strain (NF54) of the malaria parasite P. falciparum. Continuous in vitro cultures of asexual erythrocyte stages of P. falciparum were maintained using a modified version of the method of Trager and Jensen (1976).1 Quantitative assessment of antiplasmodial activity in vitro was determined via the parasite lactate dehydrogenase assay using a modified method described by Makler (1993). The test samples were tested in triplicate on two separate occasions. Further dilutions were prepared in complete medium on the day of the experiment. Samples were tested as a suspension if not completely dissolved. Chloroquine and artesunate were used as the reference drugs. A full dose-response were performed starting at a concentration of 3000 nM, which is then serially diluted 2-fold in complete medium to give 10 concentrations; with the lowest concentration being approximately 6 nM. The same dilution techniques were used for all samples. References were tested at a starting concentration of 1000 ng/mL. The highest concentration of solvent to which the parasites were exposed has no measurable effect on the parasite viability (data not shown).

For experiment [3], the system named is CQC sensitive strain (NF54) of P. falciparum. Briefly: In vitro antiplasmodial activity, Assay B (as described by Vennerstrom et al. 2004). In kind it is cell-based. Particulars: Plasmodium falciparum; NF54, Vennerstrom et al. method. How it is done: Compounds were screened against CQC sensitive strain (NF54) of P. falciparum in vitro as described by Vennerstrom et al. (2004). A full dose-response were performed starting at a concentration of 3000 nM, which is then serially diluted 2-fold in complete medium to give 10 concentrations; with the lowest concentration being approximately 6 nM. The same dilution techniques were used for all samples. References were tested at a starting concentration of 1000 ng/mL. The highest concentration of solvent to which the parasites were exposed has no measurable effect on the parasite viability (data not shown).

Experiment [4] deals with P. vivax liver-stage hypnozoites. Kind of experiment: In vitro P. vivax liver-stage assay in primary human hepatocytes, radical cure mode: hypnozoites. In kind it is cell-based. Particulars: Plasmodium vivax, Hepatocyte, infected primary human hepatocytes, read-out: Pv Hypnozoite IC50. How it is done: (§1) Compound efficacy against P. vivax liver-stage schizonts and hypnozoites is evaluated in infected primary human hepatocytes (PHHs). Compound screening is performed in 384-well plates, in a 12-point dose response, from 50 μM. All compounds are tested in radical cure mode (RCM). PHHs are seeded onto 384-well plates two days prior to P. vivax sporozoite infection. In RCM, compounds are added to the culture for three days, from day 5 post infection, in duplicate wells. Nigericin and a PI4K inhibitor (KDU691) are used as positive controls in each assay, while solvent (DMSO) without added compound serves as a negative control. Daily medium changes are performed, and the culture is fixed on day twelve post infection to ensure complete parasite clearance. Fixed cells are permeabilized and stained with an anti-UIS4 primary antibody and a fluorescent secondary antibody. Liver-stage schizonts and hypnozoites are then quantified by High Content Imaging. Roth, A., et al. A comprehensive model for assessment of liver stage therapies targeting Plasmodium vivax and Plasmodium falciparum. Nat. Commun. 2018, 9(1), 1837. doi.org/10.1038/s41467-018-04221-9.

Experiment [5] concerns P. vivax liver-stage schizonts. Briefly: In vitro P. vivax liver-stage assay in primary human hepatocytes, radical cure mode: schizonts. The experiment is classed as cell-based. Particulars: Plasmodium vivax, Hepatocyte, infected primary human hepatocytes, read-out: Pv Schizont IC50. How it is done: as §1
[6] abbreviates: growth inhibition, Table 2, read-out: PfNF54 IC50.
Where [7] appears, read: [3H]hypoxanthine incorporation, read-out: In vitro P. falciparum growth inhibition IC50.

As usually defined, the IC50 is the concentration that gives 50% inhibition.

Where two headings read alike, the source gives them in different places. Where only a bound is given, the exact number is not on record here.

Sequence of human PI4Kβ (HuPI4Kβ) (Q9UBF8 whole entry): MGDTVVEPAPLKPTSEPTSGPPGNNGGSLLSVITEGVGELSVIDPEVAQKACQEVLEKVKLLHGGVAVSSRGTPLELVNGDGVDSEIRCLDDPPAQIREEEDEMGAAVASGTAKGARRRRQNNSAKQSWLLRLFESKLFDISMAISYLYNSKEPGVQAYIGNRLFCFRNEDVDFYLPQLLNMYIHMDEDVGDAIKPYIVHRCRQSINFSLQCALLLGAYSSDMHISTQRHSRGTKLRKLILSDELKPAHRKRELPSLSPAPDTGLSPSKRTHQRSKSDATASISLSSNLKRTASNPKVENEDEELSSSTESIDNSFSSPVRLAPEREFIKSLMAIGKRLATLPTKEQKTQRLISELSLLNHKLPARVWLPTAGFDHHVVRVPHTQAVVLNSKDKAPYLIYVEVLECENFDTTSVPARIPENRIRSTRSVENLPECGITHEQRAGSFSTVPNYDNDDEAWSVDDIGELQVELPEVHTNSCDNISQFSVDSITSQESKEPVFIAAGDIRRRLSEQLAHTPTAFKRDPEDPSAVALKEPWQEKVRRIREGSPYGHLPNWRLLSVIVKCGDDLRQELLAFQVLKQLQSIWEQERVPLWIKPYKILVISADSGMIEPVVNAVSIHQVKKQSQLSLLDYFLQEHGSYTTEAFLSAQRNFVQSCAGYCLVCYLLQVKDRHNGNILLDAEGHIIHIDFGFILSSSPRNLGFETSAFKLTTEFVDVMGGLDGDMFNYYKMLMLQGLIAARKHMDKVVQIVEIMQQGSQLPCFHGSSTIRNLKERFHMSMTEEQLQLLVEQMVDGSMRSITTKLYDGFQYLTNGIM

In the case of `CC(C)(O)c1cc(-c2ncnc3cc(-c4ccc(C(=O)N5CCOCC5)cc4)oc23)ccn1` [Compound C74, (4-{4-[2-(1-Hydroxy-1-methyl-ethyl)-pyridin-4-yl]-furo[3,2-d]pyrimidin-6-yl}-phenyl)-morpholin-4-yl-methanone], the IC50 in experiment [1] (setting [6]) is 10 to 50 nM; on human PI4Kβ (HuPI4Kβ) it was over 500 nM.

`C[C@@H]1COCCN1C(=O)c1ccc(-c2cc3ncnc(-c4ccnc(C(C)(C)O)c4)c3o2)cc1` [Compound C75, (4-{4-[2-(1-Hydroxy-1-methyl-ethyl)-pyridin-4-yl]-furo[3,2-d]pyrimidin-6-yl}-phenyl)-((R)-3-methyl-morpholin-4-yl)-methanone]: the IC50 is under 10 nM in experiment [1] (setting [6]) and over 500 nM on human PI4Kβ (HuPI4Kβ).

Take `C[C@@H]1CN(C(=O)c2ccc(-c3cc4ncnc(-c5ccnc(C(C)(C)O)c5)c4o3)cc2)C[C@H](C)O1` [Compound C76, 2-[4-(6-{4-[(2R,6S)-2,6-dimethylmorpholine-4-carbonyl]phenyl}furo[3,2-d]pyrimidin-4-yl)pyridin-2-yl]propan-2-ol]: the IC50 in experiment [1] (setting [6]) was under 10 nM; at human PI4Kβ (HuPI4Kβ), over 500 nM.

Turning to `CN1CCN(C(=O)c2ccc(-c3cc4ncnc(-c5ccnc(C(C)(C)O)c5)c4o3)cc2)CC1` [Compound C77, 2-(4-{6-[4-(4-methylpiperazine-1-carbonyl)phenyl]furo[3,2-d]pyrimidin-4-yl}pyridin-2-yl)propan-2-ol], the values for the IC50 (in experiment [1] (setting [6]); at human PI4Kβ (HuPI4Kβ)) were 10 to 50 nM and over 500 nM, respectively.

For `CC(C)(O)c1cc(-c2ncnc3cc(-c4ccc(S(C)(=O)=O)cc4)oc23)cc(F)n1` [Compound D150, 2-(6-fluoro-4-(6-(4-(methylsulfonyl)phenyl)furo [3,2-d]pyrimidin-4-yl)pyridin-2-yl)propan-2-ol], the IC50 in experiment [1] (setting [7]) is 10 to 50 nM; in experiment [2] it was over 50 nM; in experiment [3], 15 to 50 nM.

For `CC(C)(O)c1cccc(-c2ncnc3cc(-c4ccc(C(=O)N5C[C@@H]6C[C@H]5CO6)cc4)oc23)c1F` [Compound D197, ((1S,4S)-2-oxa-5-azabicyclo[2.2.1]heptan-5-yl)(4-(4-(2-fluoro-3-(2-hydroxypropan-2-yl)phenyl)furo[3,2-d]pyrimidin-6-yl)phenyl)methanone], the IC50 in experiment [1] (setting [7]) is under 10 nM; in experiment [1] (setting [6]) it was under 10 nM; at human PI4Kβ (HuPI4Kβ), 100 to 500 nM; in experiment [2], under 15 nM; in experiment [3], under 15 nM.

As to `CC(C)(O)c1cccc(-c2ncnc3cc(-c4ccc(C(=O)O)cc4)oc23)c1F` [Compound D201, 4-(4-(2-fluoro-3-(2-hydroxypropan-2-yl)phenyl)furo[3,2-d]pyrimidin-6-yl)benzoic acid], the IC50 in experiment [2] is 15 to 50 nM; in experiment [3], 15 to 50 nM; in experiment [4], 15 to 50 nM; in experiment [5] it was under 15 nM.

Turning to `CN1CCN(C(=O)c2ccc(-c3cc4ncnc(-c5cccc(C(C)(C)O)c5F)c4o3)cc2)CC1` [Compound D204, (4-(4-(2-fluoro-3-(2-hydroxypropan-2-yl)phenyl)furo[3,2-d]pyrimidin-6-yl)phenyl)(4-methylpiperazin-1-yl)methanone], the IC50 in experiment [1] (setting [7]) was under 10 nM; in experiment [3], under 15 nM.

As to `CC(C)(O)c1cccc(-c2ncnc3cc(-c4ccc([S@@](C)(=N)=O)cc4)oc23)c1F` [Compound D209, (S)-(4-(4-(2-fluoro-3-(2-hydroxypropan-2-yl)phenyl)furo[3,2-d]pyrimidin-6-yl)phenyl)(imino)(methyl)-λ^6-sulfanone], the IC50 in experiment [1] (setting [7]) was under 10 nM; in experiment [2] it was under 15 nM.

As for `CC(C)(O)c1cccc(-c2ncnc3cc(-c4ccc([S@](C)(=N)=O)cc4)oc23)c1F` [Compound D210, (R)-(4-(4-(2-fluoro-3-(2-hydroxypropan-2-yl)phenyl)furo[3,2-d]pyrimidin-6-yl)phenyl)(imino)(methyl)-λ^6-sulfanone], the IC50 in experiment [1] (setting [7]) was under 10 nM; in experiment [2] it was under 15 nM.

For `CC(C)(O)c1cccc(-c2ncnc3cc(-c4ccc(S5(=O)=NCCCC5)cc4)oc23)c1F` (centres unmarked) [Compound D211, 1-(4-(4-(2-fluoro-3-(2-hydroxypropan-2-yl)phenyl)furo[3,2-d]pyrimidin-6-yl)phenyl)-3,4,5,6-tetrahydro-1,2-thiazine 1-oxide], in experiment [1] (setting [7]), the IC50 was under 10 nM.

For the molecule `CC(C)(O)c1cccc(-c2ncnc3cc(-c4ccc(S5(=O)=NCCC5)cc4)oc23)c1F` (centres unmarked) [Compound D212, 1-(4-(4-(2-fluoro-3-(2-hydroxypropan-2-yl)phenyl)furo[3,2-d]pyrimidin-6-yl)phenyl)-4,5-dihydro-3H-isothiazole 1-oxide], the IC50 was under 10 nM in experiment [1] (setting [7]) and under 15 nM in experiment [2].

As for `CC(C)(O)c1cc(-c2ncnc3cc(-c4ccc(S(C)(=O)=O)cc4)oc23)ccn1` [Compound D213, 2-(4-(6-(4-(methylsulfonyl)phenyl)furo [3,2-d]pyrimidin-4-yl)pyridin-2-yl)propan-2-ol], the half-maximal inhibitory concentration (IC50) in experiment [1] (setting [7]) is 10 to 50 nM; in experiment [4], over 50 nM; in experiment [5], under 15 nM.

As to `CC(C)(O)c1cc(-c2ncnc3cc(-c4ccc(C5(C(=O)N6C[C@@H]7C[C@H]6CO7)CC5)cc4)oc23)ccn1` [Compound P23, ((1S,4S)-2-oxa-5-azabicyclo[2.2.1]heptan-5-yl)(1-(4-(4-(2-(2-hydroxypropan-2-yl)pyridin-4-yl)furo[3,2-d]pyrimidin-6-yl)phenyl)cyclopropyl) methanone], the IC50 in experiment [2] and in experiment [3] was over 50 nM in each case.

As to `CC(C)(O)c1cc(-c2ncnc3cc(-c4ccc(C5(C(=O)N6C[C@H]7C[C@@H]6CO7)CC5)cc4)oc23)ccn1` [Compound P24, ((1R,4R)-2-oxa-5-azabicyclo[2.2.1]heptan-5-yl)(1-(4-(4-(2-(2-hydroxypropan-2-yl)pyridin-4-yl)furo[3,2-d]pyrimidin-6-yl)phenyl)cyclopropyl) methanone], the IC50 in experiment [2] and in experiment [3] was over 50 nM each time.

As to `CC(C)(O)c1nccc(-c2ncnc3cc(-c4ccc(S(C)(=O)=O)cc4)oc23)c1F` [Compound P31, 2-(3-fluoro-4-(6-(4-(methylsulfonyl)phenyl)furo [3,2-d]pyrimidin-4-yl)pyridin-2-yl)propan-2-ol], the IC50 in experiment [2] and in experiment [3] was under 15 nM each time.
